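Growth conditions: 96-well plates. Treatment: test compound, 48 hours, 5 concentrations. Analysis: linear interpolation between bracketing concentrations; unreached endpoints set to highest concentration. TGI marks complete inhibition of growth.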 Where a SMILES comes first, the peptide text is derived from it. [ ]: non-standard residue; d: D form. The star is where a group is joined. ξ: configuration not given here. NMeY = CN[C@@H](Cc1ccc(O)cc1)C(=O)O; Cbz = O=C(OCc1ccccc1)*; ξA = CC(N)C(=O)O
Columns and labels:
Test in all cases: NCI anticancer screen, dose series, 48 h
[1] = system: UO-31 renal
[2] = system: RXF 393 renal
[3] = system: OVCAR-3 ovarian
[4] = system: NCI-H226 lung
[5] = system: KM12 colon
[6] = system: OVCAR-5 ovarian
[7] = system: SR leukemia
[8] = system: M14 melanoma
[9] = system: MALME-3M melanoma
[10] = system: HCC-2998 colon

Compound	TGI [1] [µM]	TGI [2] [µM]	TGI [3] [µM]	TGI [4] [µM]	TGI [5] [µM]	TGI [6] [µM]	TGI [7] [µM]	TGI [8] [µM]	TGI [9] [µM]	TGI [10] [µM]
CCOC(=O)c1c2ccccc2n2c(=O)n(-c3ccc(OC)cc3)nnc12	> 100	43.5	> 91.1	87.9	> 100	> 100	> 100	> 100	> 100	> 100
COc1ccc(C[C@@H](C(=O)N[C@@H](C)C(N)=O)N(C)C(=O)[C@@H]2CCCN2C(=O)[C@H](CC(C)C)NC(=O)C(C)NC(=O)OCc2ccccc2)cc1 (stereo not given in full) (Cbz-[ξA]LP[NMeY](Me)A-NH2)	> 100	> 100	> 100	> 100	> 100	> 100	> 100	> 100	> 100	> 100
O=c1ccn(C/C=C/c2ccccc2)c(=S)n1C/C=C/c1ccccc1	> 100	85.6	> 100	> 100	> 100	> 100	> 100	> 100	> 100	> 100
O=C(O)C12C3CCC(C3)C1(C(=O)O)C1CCC2C1 (stereo not given)	> 100	> 100	> 100	> 100	> 100	> 100	> 100	> 100	> 100	> 100
N#Cc1ccc(C2OCC3CC=CCC3CO2)cc1 (stereo not given)	> 100	> 100	> 100	> 100	> 100	> 100	> 100	> 100	> 100	> 100
CNC(=O)O/N=C1\N(C)CN(c2ccccc2)C12CCN(CCCC(=O)c1ccc(F)cc1)CC2	> 100	> 100	> 100	> 100	81.7	> 100	> 100	32.9	90.8	> 100
Nc1c(F)c(F)c2c(c1F)N(CCCCCl)c1ccccc1S2	> 100	> 100	> 100	> 100	> 100	> 100	> 100	> 100	> 100	> 100
O=C(Nc1ccccc1)OCCN=c1c2ccccc2ccc2ccccc12	39.9	75.9	44.2	57.1	44.4	> 100	54.5	40.8	46	25.1
CSC12c3cc(C)n(-c4ccc(I)cc4)c3CC(C)(C)CN1C(=O)C2Oc1ccccc1 (stereo not given)	> 100	> 100	> 100	> 100	> 100	> 100	> 100	> 100	> 100	> 100
COc1ccccc1/C=C1\CCC(Cc2ccccc2)(CN(C)C)C1=O (stereo not given)	> 100	51	15.3	80.4	15.9	> 81.9	3.53	34.9	> 100	24.3
O=S(=O)(O)c1c(Cl)c(Cl)c(O)c2ncccc12	22.7	44.5	42.3	64.3	33.2	42	27.6	27.1	31.1	31.4
Cc1cn(C2CC(O)C(Cn3nncc3Cn3cnc4c(N)ncnc43)O2)c(=O)[nH]c1=O (stereo not given)	> 100	> 100	> 100	> 100	> 100	> 100	> 100	> 100	> 100	> 100
CCC1=CC(OCc2ccccc2)C(CCN(Cc2ccccc2)C(=O)OCc2ccccc2)C1 (stereo not given)	28.3	17.7	28.4	36.5	29.7	36.9	56.4	27.8	30.1	35.8
O=[N+]([O-])C(C(Cl)=C(Cl)Cl)=C(N1CCCCC1)N1CCCCC1	> 100	> 100	> 100	> 100	> 100	> 100	> 100	> 100	> 100	> 100
c1ccc2c(c1)nc1ccccn12	> 100	> 100	> 100	> 100	> 100	> 100	> 100	> 100	> 100	> 100
O=C1C(Cl)C(c2ccc(O)cc2)N1n1cnc2ccccc2c1=O (stereo not given)	> 100	35.7	> 90.1	> 100	> 100	> 100	69.8	96.8	> 83.9	> 100
